Test results: patent US20110201620A1, “2-(3-AMINOARYL) AMINO-4-ARYL-THIAZOLES AND THEIR USE AS C-KIT INHIBITORS” (AB SCIENCE, priority 2002, published 2011)

Tests used:
[1] = test system: imatinib-resistant HMC-1 α155 cells; test: Apoptosis assay by propidium iodide staining; assay type: cell-based, human; settings: 1 μM
Description: HMC-1 is a human mast cell line derived from a patient with mast cell leukaemia. The cell line used in this study, HMC-1 α155, is a clone derived from the original population expressing endogenous Kit bearing the mutation Val 560 to Gly. […] The medium used in this case was a RPMI medium containing L-glutamine (Cambrex cat# 12-702F) supplemented with 100 U/mL penicillin and 100 μg/mL streptomycin (Cambrex 100X penicilline/streptomycine mixture cat #17-602E), and with 10% v/v foetal calf serum (AbCys Lot S02823S1800) which has been previously heat-inactivated 30 minutes at 56° C. (RPMI 10). The medium containing the drugs was replaced with fresh one every 3-4 days. […] The principle behind the method for apoptosis assay by Propidium Iodide Staining (PI staining) is as follows: during apoptosis, DNA breakup causes small fragments of DNA to be free in the nucleus. Following appropriate elution with citrate buffer, these fragments are lost from the nucleus. As these cells now have a lower DNA content, subsequent staining with a DNA binding dye will reveal these cells in the sub-G1 region.
The % apoptosis represents the percentage of cells in apoptose with respect to overall cells.

[2] = Phase 2 clinical trial in advanced GIST, safety assessment; assay type: in vivo, human
Description: Methods; Patients: Patients enrolled in this study were aged over 18 years with inoperable, non-pretreated, histologically proven locally advanced or metastatic, c-Kit positive GIST. […] Exclusion criteria included: inadequate organ function defined via blood tests, severe liver or cardiac failure, and severe neurological or psychiatric disorders. Patients receiving a concomitant treatment within 4 weeks before inclusion, and pregnant or lactating women were also excluded. […] All adverse events (AEs), including abnormal serology or haematology, were recorded regardless of causality.

[3] = test system: Human Kit exon 9; settings: read-out: Cell proliferation assay (IC50) Human Kit exon 9; cited from earlier work
[4] = N = 30, Suspected: treatment related or not assessable

Cc1ccc(NC(=O)c2ccc(CN3CCN(C)CC3)cc2)cc1Nc1nc(-c2cccnc2)cs1 [Compound 066, 4-(4-methyl-piperazin-1-ylmethyl)-N-[4-methyl-3-(4-pyridin-3-yl-thiazol-2-ylamino)-phenyl]-benzamide]
% apoptosis (cells in apoptosis) [1]: More than 45%
patients reporting one grade 4 AE (skin exfoliation) ([2]; 1/30 patient): 3.3%
patients with treatment interruption for treatment-related haematological toxicity ([2]; 1/30 patient): 3%
patients with grade 3 treatment-related rash ([2]; 3/30 patients): 10%
patients experiencing serious adverse events (SAE) ([2]; 8/30 patients): 27%
patients with treatment interruption for non-haematological AEs ([2]; 13/30 patients): 43%
patients with at least one grade 3 treatment-related AE ([2]; 14/30 patients): 47%
patients with treatment interruption for more than 8 days ([2]; 16/30 patients): 53.3%
patients with treatment-related oedemas (all types) ([2]; 21/30 patients): 70%
patients reporting at least one treatment-related AE ([2]; ITT population): All patients
treatment-related toxicity per patient: abdominal pain ([2]; ITT population): 33%
treatment-related toxicity per patient: asthenia ([2]; ITT population): 83%
treatment-related toxicity per patient: cutaneous rash ([2]; ITT population): 40%
treatment-related toxicity per patient: diarrhoea ([2]; ITT population): 57%
treatment-related toxicity per patient: eye oedema ([2]; ITT population): 47%
treatment-related toxicity per patient: muscle spasms ([2]; ITT population): 40%
treatment-related toxicity per patient: nausea ([2]; ITT population): 47%
treatment-related toxicity per patient: peripheral oedema ([2]; ITT population): 20%
treatment-related toxicity per patient: pruritus ([2]; ITT population): 33%
treatment-related toxicity per patient: upper abdominal pain ([2]; ITT population): 23%
treatment-related toxicity per patient: vomiting ([2]; ITT population): 23%
Abdominal Pain Upper, All causalities, All grades ([2]; N = 30): 9 (30.0%) Number (%) of patients
Abdominal Pain, All causalities, All grades ([2]; N = 30): 16 (53.3%) Number (%) of patients
Abdominal Pain, All causalities, G3 + G4 ([2]; N = 30): 2 (6.7%) Number (%) of patients
Anaemia, All causalities, All grades ([2]; N = 30): 6 (20.0%) Number (%) of patients
Anaemia, All causalities, G3 + G4 ([2]; N = 30): 1 (3.3%) Number (%) of patients
Asthenia, All causalities, All grades ([2]; N = 30): 27 (90.0%) Number (%) of patients
Asthenia, All causalities, G3 + G4 ([2]; N = 30): 1 (3.3%) Number (%) of patients
Diarrhoea, All causalities, All grades ([2]; N = 30): 18 (60.0%) Number (%) of patients
Diarrhoea, All causalities, G3 + G4 ([2]; N = 30): 1 (3.3%) Number (%) of patients
Dry Skin, All causalities, All grades ([2]; N = 30): 4 (13.3%) Number (%) of patients
Erythema, All causalities, All grades ([2]; N = 30): 6 (20.0%) Number (%) of patients
Eye Oedema, All causalities, All grades ([2]; N = 30): 14 (46.7%) Number (%) of patients
Eye Oedema, All causalities, G3 + G4 ([2]; N = 30): 1 (3.3%) Number (%) of patients
Eyelid Oedema, All causalities, All grades ([2]; N = 30): 7 (23.3%) Number (%) of patients
Lacrimation Increased, All causalities, All grades ([2]; N = 30): 4 (13.3%) Number (%) of patients
Mucosal Inflammation, All causalities, All grades ([2]; N = 30): 5 (16.7%) Number (%) of patients
Mucosal Inflammation, All causalities, G3 + G4 ([2]; N = 30): 1 (3.3%) Number (%) of patients
Muscle Spasms, All causalities, All grades ([2]; N = 30): 12 (40.0%) Number (%) of patients
Myalgia, All causalities, All grades ([2]; N = 30): 4 (13.3%) Number (%) of patients
Nausea, All causalities, All grades ([2]; N = 30): 15 (50.0%) Number (%) of patients
Neutropenia, All causalities, All grades ([2]; N = 30): 5 (16.7%) Number (%) of patients
Neutropenia, All causalities, G3 + G4 ([2]; N = 30): 2 (6.7%) Number (%) of patients
Oedema Peripheral, All causalities, All grades ([2]; N = 30): 8 (26.7%) Number (%) of patients
Pruritus, All causalities, All grades ([2]; N = 30): 11 (36.7%) Number (%) of patients
Pruritus, All causalities, G3 + G4 ([2]; N = 30): 1 (3.3%) Number (%) of patients
Rash, All causalities, All grades ([2]; N = 30): 12 (40.0%) Number (%) of patients
Rash, All causalities, G3 + G4 ([2]; N = 30): 3 (10.0%) Number (%) of patients
Vomiting, All causalities, All grades ([2]; N = 30): 10 (33.3%) Number (%) of patients
Abdominal Pain Upper, Suspected, All grades [2, 4]: 7 (23.3%) Number (%) of patients
Abdominal Pain, Suspected, All grades [2, 4]: 10 (33.3%) Number (%) of patients
Abdominal Pain, Suspected, G3 + G4 [2, 4]: 1 (3.3%) Number (%) of patients
Anaemia, Suspected, All grades [2, 4]: 4 (13.3%) Number (%) of patients
Anaemia, Suspected, G3 + G4 [2, 4]: 1 (3.3%) Number (%) of patients
Asthenia, Suspected, All grades [2, 4]: 25 (83.3%) Number (%) of patients
Asthenia, Suspected, G3 + G4 [2, 4]: 1 (3.3%) Number (%) of patients
Diarrhoea, Suspected, All grades [2, 4]: 17 (56.7%) Number (%) of patients
Diarrhoea, Suspected, G3 + G4 [2, 4]: 1 (3.3%) Number (%) of patients
Dry Skin, Suspected, All grades [2, 4]: 4 (13.3%) Number (%) of patients
Erythema, Suspected, All grades [2, 4]: 5 (16.7%) Number (%) of patients
Eye Oedema, Suspected, All grades [2, 4]: 14 (46.7%) Number (%) of patients
Eye Oedema, Suspected, G3 + G4 [2, 4]: 1 (3.3%) Number (%) of patients
Eyelid Oedema, Suspected, All grades [2, 4]: 7 (23.3%) Number (%) of patients
Lacrimation Increased, Suspected, All grades [2, 4]: 4 (13.3%) Number (%) of patients
Mucosal Inflammation, Suspected, All grades [2, 4]: 5 (16.7%) Number (%) of patients
Mucosal Inflammation, Suspected, G3 + G4 [2, 4]: 1 (3.3%) Number (%) of patients
Muscle Spasms, Suspected, All grades [2, 4]: 12 (40.0%) Number (%) of patients
Myalgia, Suspected, All grades [2, 4]: 4 (13.3%) Number (%) of patients
Nausea, Suspected, All grades [2, 4]: 14 (46.7%) Number (%) of patients
Neutropenia, Suspected, All grades [2, 4]: 5 (16.7%) Number (%) of patients
Neutropenia, Suspected, G3 + G4 [2, 4]: 2 (6.7%) Number (%) of patients
Oedema Peripheral, Suspected, All grades [2, 4]: 6 (20.0%) Number (%) of patients
Pruritus, Suspected, All grades [2, 4]: 10 (33.3%) Number (%) of patients
Pruritus, Suspected, G3 + G4 [2, 4]: 1 (3.3%) Number (%) of patients
Rash, Suspected, All grades [2, 4]: 12 (40.0%) Number (%) of patients
Rash, Suspected, G3 + G4 [2, 4]: 3 (10.0%) Number (%) of patients
Vomiting, Suspected, All grades [2, 4]: 7 (23.3%) Number (%) of patients
cardiac side-effects ([2]; human, in vivo): no cardiac side-effects have been observed
total number of serious adverse events (SAE) ([2]; in 8/30 patients): 14
patients with dose reduced by 100 or 200 mg/day following grade 3-4 AEs ([2]; six patients): 20%
number of treatment-related SAE ([2]; worsening of a concomitant psoriasis and anaemia): three
IC50 [3]: 0.1 µM
